According to patent publication USRE46511E1, “Fused pyrimidine derivatives for inhibition of tyrosine kinase activity” (HANMI SCIENCE CO., LTD., priority 2010, dated 2017):

Key:
Assay type in all cases: cell-based
A431 (EGFR WT) = assay: Inhibition test for growth of cancer cell expressing EGFR (SRB), A431; settings: Homo sapiens, A-431; A431 cells, 72 hours, SRB; read-out: GI50 A431 EGFR WT;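 note: cells in 96-well plates exposed to tenfold serial dilutions from 100 µM down to 10^−6 µM, DMSO under 1%, SRB staining read as absorbance at 540 nm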
Experimental: A431 cell line was incubated in a high-glucose DMEM (Dulbecco's Modified Eagle's Medium) supplemented with 10% fetal bovine serum (FBS) and 1% penicillin/streptomycin (Gibco BRL), and HCC827 and NCI-H1975 cell lines were incubated in an RPMI medium supplemented with 10% FBS, 1% penicillin/streptomycin and 1% sodium pyruvate.
The cancer cell lines stored in a liquid nitrogen tank were each quickly thawed at 37° C., and centrifuged to remove the medium. The resulting cell pellet was mixed with a culture medium, incubated in a culture flask at 37° C. under 5% CO2 for 2 to 3 days, and the medium was removed. The remaining cells were washed with DPBS (Dulbecco's Phosphate Buffered Saline) and separated from the flask by using Tripsin-EDTA. […] 100 μl of the diluted cell solution was added to each well of a 96-well plate, and incubated at 37° C. under 5% CO2 for 1 day.
In case that the test compound was not soluble in DMSO, 1% HCl was added thereto and treated in a 40° C. water bath for 30 mins until a complete dissolution was attained. The DMSO solution containing test compound was diluted with a culture medium to a final concentration of 100 μM, and then diluted 10 times serially to 10^−6 μM (a final concentration of DMSO was less than 1%).
The medium was removed from each well of the 96-well plate. And then, 100 μl of a test compound solution was added to each well holding the cultured cells, and the plate was incubated at 37° C. under 5% CO2 for 72 hours (except that NCI-H1975 cells were incubated for 48 hours). After removing the medium from the plate, 50 μA of 10% trichloroacetic acid was added to each well, and the plate was kept at 4° C. for 1 hour to fix the cells to the bottom of the plate. The added 10% trichloroacetic acid solution was removed from each well, the plate was dried, 100 μA of an SRB (Sulforhodamine-B) dye solution at a concentration of 0.4% dissolved in 1% acetic acid was added thereto, and the resulting mixture was reacted for 10 mins at room temperature. After removing the dye solution, the plate was washed with water, and well dried. When the dye solution was not effectively removed by water, 1% acetic acid was used. 150 μA of 10 mM trisma base was added to each well, and the absorbance at 540 nm wavelength was determined with a microplate reader.

[1] = tested on: HCC827 (EGFR DelE746_A750); assay: Inhibition test for growth of cancer cell expressing EGFR (SRB), HCC827; settings: Homo sapiens, HCC827, 72 h, HCC827 cells, 72 hours, SRB; read-out: GI50 HCC827 EGFR DelE746_A750;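 note: cells in 96-well plates exposed to tenfold serial dilutions from 100 µM, fixed with trichloroacetic acid, SRB-stained, absorbance read at 540 nm, DMSO under 1%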
[2] = tested on: NCI-H1975 (EGFR L858R/T790M); assay: Inhibition test for growth of cancer cell expressing EGFR (MTS), NCI-H1975; settings: Homo sapiens; NCI-H1975 cells, 48 hours, MTS; read-out: GI50 NCI-H1975 EGFR L858R/T790M

SMILES	GI50 (A431 (EGFR WT)) [nM]	GI50 [1] [nM]	GI50 [2] [nM]
C=CC(=O)Nc1cccc(Oc2nc(Nc3ccc(CN4CCN(CC5CC5)CC4)cc3)nc3ccsc23)c1 [Example 185]	> 1000	< 50	< 50
C=CC(=O)Nc1cccc(Oc2nc(Nc3ccc(CN4CCCCC4)cc3)nc3ccsc23)c1 [Example 178]	> 1000	< 50	< 50
C=CC(=O)Nc1cccc(Oc2nc(Nc3ccc(C(=O)N4CCN(CC)CC4)cc3)nc3ccsc23)c1 [Example 90]	> 1000	< 50	< 50
C=CC(=O)Nc1cccc(Oc2nc(Nc3ccc(N4CCN(CC)CC4)cn3)nc3ccsc23)c1 [Example 168]	> 1000	< 50	< 50
C=CC(=O)Nc1cccc(Oc2nc(Nc3ccc(N4CCN(S(=O)(=O)CC)CC4)cc3)nc3ccsc23)c1 [Example 24]	> 1000	< 50	50 to 100
C=CC(=O)Nc1cccc(Oc2nc(Nc3ccc(N4CCN(C)CC4)c(OC)c3)nc3ccoc23)c1 [Example 234]	> 1000	< 50	< 50
C=CC(=O)Nc1cccc(Oc2nc(Nc3ccc(CCN4CCN(S(=O)(=O)C=C)CC4)cc3)nc3ccsc23)c1 [Example 100]	> 1000	< 50	< 50
C=CC(=O)Nc1cccc(Oc2nc(Nc3ccc(N4CCS(=O)(=O)CC4)cc3)nc3ccsc23)c1 [Example 32]	> 1000	< 50	< 50
C=CC(=O)Nc1ccc(F)c(Nc2nc(Nc3ccc(N4CCN(C)CC4)cc3)nc3ccsc23)c1 [Example 218, N-(4-fluoro-3-(2-(4-(4-methyl-piperazin-1-yl)-phenylamino)-thieno[3,2-d]pyrimidin-4-ylamino)-phenyl)-acrylamide]	> 1000	< 50	50 to 100
C=CC(=O)Nc1cccc(Oc2nc(Nc3ccc(C(C)N4CCN(CC)CC4)cc3)nc3ccsc23)c1 (stereo not shown) [Example 184]	> 1000	< 50	< 50
C=CC(=O)Nc1ccc(F)c(Oc2nc(Nc3ccc(N4CCN(C)CC4)cc3)nc3ccsc23)c1 [Example 165]	> 1000	< 50	< 50
C=CC(=O)Nc1cccc(Oc2nc(Nc3ccc(N4CCN(C)CC4)cn3)nc3ccsc23)c1 [Example 167, N-(3-(2-(5-(4-methylpiperazin-1-yl)piridin-2-ylamino)thieno[3,2-d]pyrimidin-4-yloxy)phenyl)acrylamide]	> 1000	< 50	< 50
C=CC(=O)Nc1cccc(Oc2nc(Nc3ccc(CN4CCN(C5CCN(C)CC5)CC4)cc3)nc3ccsc23)c1 [Example 186]	> 1000	< 50	< 50
C=CC(=O)Nc1cccc(Oc2nc(Nc3ccc(N4CCN(C5CCCCC5)CC4)cc3)nc3ccsc23)c1 [Example 13]	100 to 1000	< 50	< 50
C=CC(=O)Nc1cccc(Nc2nc(Nc3ccc(CCN(C)C)cc3)nc3ccsc23)c1 [Example 213]		50 to 100	< 50
C=CC(=O)Nc1cccc(Oc2nc(Nc3ccc(S(=O)(=O)N4CCN(CC)CC4)cc3)nc3ccsc23)c1 [Example 76]	> 1000	< 50	50 to 100
C=CC(=O)Nc1cccc(Oc2nc(Nc3ccc(N4CCN(CCO)CC4)cn3)nc3ccsc23)c1 [Example 156]		< 50	50 to 100
C=CC(=O)Nc1cccc(Oc2nc(Nc3ccc(N4CCN(S(=O)(=O)N(C)C)CC4)cc3)nc3ccsc23)c1 [Example 25]		50 to 100	50 to 100
C=CC(=O)Nc1cccc(Oc2nc(Nc3ccc(N4CCN(CC(F)F)CC4)cc3)nc3ccsc23)c1 [Example 15]		< 50	< 50
C=CC(=O)Nc1cccc(Oc2nc(Nc3ccc(/C=C/CN4CCCCC4)cc3)nc3ccsc23)c1 [Example 102]		< 50	50 to 100
C=CC(=O)Nc1cccc(Nc2nc(Nc3ccc(OCCN(C)C)cc3)nc3ccsc23)c1 [Example 211]		< 50	< 50
C=CC(=O)Nc1cccc(Oc2nc(Nc3ccc(N4CCN(C(=O)N5CCOCC5)CC4)cc3)nc3ccsc23)c1 [Example 22]		< 50	50 to 100
C=CC(=O)Nc1cccc(Nc2nc(Nc3ccc(C4CCCN(C)C4)cc3)nc3ccsc23)c1 (stereo not shown) [Example 210]		< 50	< 50
C=CC(=O)Nc1cccc(Nc2nc(Nc3ccc(CCN4CCN(C)CC4)cc3)nc3ccsc23)c1 [Example 214]		50 to 100	< 50
C=CC(=O)Nc1cccc(Nc2nc(Nc3ccc(OCCCN(C)C)cc3)nc3ccsc23)c1 [Example 212]		50 to 100	50 to 100
C=CC(=O)Nc1cccc(Sc2nc(Nc3ccc(N4CCOCC4)c(F)c3)nc3ccsc23)c1 [Example 224]		< 50	< 50

More lines, now with the values ahead:

GI50 (A431 (EGFR WT)) [nM]	GI50 [1] [nM]	GI50 [2] [nM]	SMILES
> 1000	< 50	100 to 1000	C=CC(=O)Nc1cccc(Oc2nc(Nc3ccc(N4CCNCC4)cc3)nc3ccsc23)c1 [Example 158, N-(3-(2-(4-(piperazin-1-yl)phenylamino)-thieno[3,2-d]pyrimidine-4-yloxy)-phenyl)-acrylamide]
> 1000	< 50	< 50	C=CC(=O)Nc1cccc(Oc2nc(Nc3ccc(OCCN4CCOCC4)cc3)nc3ccsc23)c1 [Example 65]
> 1000	< 50	< 50	C=CC(=O)Nc1cccc(Oc2nc(Nc3ccc(N4CCN(S(C)(=O)=O)CC4)c(F)c3)nc3ccsc23)c1 [Example 120]
> 1000	< 50	< 50	C=CC(=O)Nc1cccc(Oc2nc(Nc3ccc(N4CCNCC4)c(Cl)c3)nc3ccsc23)c1 [Example 159]
> 1000	< 50	< 50	C=CC(=O)Nc1cccc(Oc2nc(Nc3ccc4c(c3)NCCOC4)nc3ccsc23)c1 [Example 107]
> 1000	100 to 1000	< 50	C=CC(=O)Nc1cccc(Oc2nc(Nc3ccc(N4CCCCC4)cc3)nc3ccsc23)c1 [Example 37]
> 1000	< 50	< 50	C=CC(=O)Nc1cccc(Oc2nc(Nc3ccc(CN4CCCC4)cc3)nc3ccsc23)c1 [Example 176]
> 1000	< 50	< 50	C=CC(=O)Nc1cccc(Oc2nc(Nc3ccc(N4CCN(CC)CC4)cc3OC)nc3ccsc23)c1 [Example 112]
100 to 1000	< 50	< 50	C=CC(=O)Nc1cccc(Oc2nc(Nc3ccc(N4CCN(CC)CC4)cc3)nc3ccsc23)c1 [Example 10]
	< 50	< 50	C=CC(=O)Nc1cccc(Oc2nc(Nc3ccc(CN4CCN(C)CC4)c(F)c3)nc3ccsc23)c1 [Example 197]
	50 to 100	< 50	C=CC(=O)Nc1cccc(Oc2nc(Nc3ccc(OCCOC)c(F)c3)nc3ccsc23)c1 [Example 131]
	< 50	< 50	C=CC(=O)Nc1cccc(Oc2nc(Nc3ccc(C(C)=O)cc3)nc3ccsc23)c1 [Example 77]
> 1000	< 50	< 50	C=CC(=O)Nc1cccc(Oc2nc(Nc3ccc4c(c3)CCN4C(=O)CN(C)C)nc3ccsc23)c1 [Example 109]
	< 50	< 50	C=CC(=O)Nc1cccc(Oc2nc(Nc3ccc(OCCN4CCN(C)CC4)c(F)c3)nc3ccsc23)c1 [Example 134]
	< 50	< 50	C=CC(=O)Nc1cccc(Oc2nc(Nc3ccc(CCN(C)C)cc3)nc3ccsc23)c1 [Example 191]
	< 50	< 50	C=CC(=O)Nc1cccc(Oc2nc(Nc3ccc(C4(N)CC4)cc3)nc3ccsc23)c1 [Example 160]
	50 to 100	50 to 100	C=CC(=O)Nc1cccc(Oc2nc(Nc3ccc4c(c3)CCCC(=O)N4C)nc3ccsc23)c1 [Example 108]
	50 to 100	< 50	C=CC(=O)Nc1cccc(Oc2nc(Nc3ccc(-n4ccnc4)cc3)nc3ccsc23)c1 [Example 56]
	50 to 100	< 50	C=CC(=O)Nc1cccc(Oc2nc(Nc3ccc4c(c3)OCCO4)nc3ccsc23)c1 [Example 106]
	< 50	50 to 100	C=CC(=O)Nc1cccc(Oc2nc(Nc3ccc(N4CCN(CCF)CC4)cc3)nc3ccsc23)c1 [Example 14]
	< 50	< 50	C=CC(=O)Nc1cccc(Oc2nc(Nc3ccc(OCCN4CCOCC4)c(OC)c3)nc3ccsc23)c1 [Example 116]
	50 to 100	< 50	C=CC(=O)Nc1cccc(Oc2nc(Nc3ccc(OCCOC)cc3)nc3ccsc23)c1 [Example 61]
	< 50	50 to 100	C=CC(=O)Nc1cccc(Oc2nc(Nc3ccc(C(=O)NCCN4CCCC4)cc3OC)nc3ccsc23)c1 [Example 117]
	50 to 100	< 50	C=CC(=O)Nc1cccc(Oc2nc(Nc3ccc(CCS(C)(=O)=O)cc3)nc3ccsc23)c1 [Example 97]
	50 to 100	< 50	C=CC(=O)Nc1cccc(Oc2nc(Nc3ccc(C4CCN(C)CC4)cc3OC)nc3ccsc23)c1 [Example 114]
	100 to 1000	100 to 1000	C=CC(=O)Nc1cccc(Oc2nc(Nc3ccc(O)cc3)nc3ccsc23)c1 [Example 60]
	50 to 100	50 to 100	C=CC(=O)Nc1cccc(Oc2nc(Nc3ccc(C(=O)N(C)C)cc3)nc3ccsc23)c1 [Example 84]
	50 to 100	< 50	C=CC(=O)Nc1cccc(Oc2nc(Nc3ccc(S(=O)(=O)NC4CC4)cc3)nc3ccsc23)c1 [Example 71]
